Source: US9725490B2, “ERAP1-derived peptide and use thereof” (TOKUSHIMA UNIVERSITY, priority 2011, dated 2017)

Columns and labels:
Format in all cases: cell-based, human
ERAP1 expression = experiment: ERAP1 expression, quantitative RT-PCR and Western, MCF-7; conditions: tamoxifen, 10 nM E2 24 hours
ERE reporter activity = experiment: ERE-luciferase assay of tamoxifen with ERAP1 knockdown; conditions: 10 μM tamoxifen, 96 hours, 1 μM E2
Description: (§1) FIG. 17 is a diagram illustrating the influence of ERAP1 knockdown on the suppression effect on proliferation of breast cancer cells by tamoxifen.
In addition, the inhibition effect of tamoxifen when ERAP1 was knocked down by siRNA method was evaluated with ERE-luciferase assay. MCF-7 cells were seeded in 2×10^4/well on a 96-well plate, and were temporarily transfected with ERE-luciferase reporter. Then, the cells were stimulated with 1 μM E2, and after 24 hours, treated with si-ERAP1 or si-control. After 24 hours, the cells were treated with 10 μM tamoxifen and after 96 hours, ERE luciferase activity was measured.

MCF-7 cells [1] = experiment: MTT assay of tamoxifen with ERAP1 knockdown; conditions: 10 μM tamoxifen, 96 hours, 1 μM E2
Description: as §1
The inhibition effect of tamoxifen when ERAP1 was knocked down by siRNA method was evaluated with MTT assay. The sequences of si-ERAP1, and si-control (si-EGFP) and the method for the experiment were in accordance with the report of Kim et, al. (Cancer Science, 2009, 100; 1468-78) MCF-7 cells were seeded in […] on a 48-well plate, and stimulated with 1 μM E2, and after 24 hours, treated with si-ERAP1 or si-control. After 24 hours, the cells were treated with 10 μM tamoxifen and the number of living cells was evaluated with MTT assay after 96 hours.

MCF-7 cells [2] = experiment: Cell cycle FACS analysis, MCF-7; conditions: 10 μM ERAP1-peptide and/or 10 nM tamoxifen, 10 nM E2 24 hours
Description: FIG. 6-2 is a diagram illustrating that ERAP1-peptide treatment suppresses ERα-dependent cell proliferation of breast cancer cell lines. […] MCF-7 cells were treated with 10 μM ERAP1-peptide or 10 μM tamoxifen. Then, immediately, the cells were stimulated with 10 nM E2 for 24 hours. After the immobilization, the cells were stained with propidium iodide, and analyzed by flow cytometry.
FIG. 19 is a diagram illustrating the results of FACS analysis showing the effects of concomitant use of the ERAP1-peptide and tamoxifen on the cell cycle.
The cells were fixed with cold 70% ethanol, and stained with 20 μg/ml propidium iodide (Sigma) and 1 mg/ml ribonuclease A (Sigma), and analyzed with FACSCalibur (B D, Franklin Lakes, N.J., USA). The cell cycle was evaluated using CellQuest software (BD).
MCF-7 cells were treated with 10 μM ERAP1-peptide and/or 10 nM tamoxifen. Then, immediately, the cells were stimulated with 10 nM E2 for 24 hours. After the immobilization, the cells were stained with propidium iodide, and analyzed by flow cytometry.

[3] = system: Akt, MAPK and ERα phosphorylation; experiment: Phosphorylation of Akt, MAPK and ERα in tamoxifen-resistant MCF-7 cells; conditions: Tam-R MCF-7, tamoxifen alone or tamoxifen and E2
Description: FIG. 14 is a diagram illustrating the suppression effect of the ERAP1-peptide on tamoxifen-resistant MCF-7 cells. […] The tamoxifen-resistant MCF-7 cells were treated with the ERAP1-peptide in each concentration (0, 5 and 10 μM). Then, immediately, the cells were stimulated with 10 nM E2 for 24 hours.
MCF-7 cells and tamoxifen-resistant MCF-7 cells were seeded in 1×10^5/well in DMEM/F12 culture medium containing phenol red on a 24-well plate and stood in a CO2 incubator for 24 hours. Then, the culture medium was exchanged with DMEM/F12 culture medium containing 10% FBS, 1% penicillin/streptomycin and 1 μM tamoxifen, and not containing phenol red, and the cells were further pre-cultured for 24 hours. The supernatant was removed, and then 180 μl of […] ERAP1-peptide was added (final concentration: 10 μM), and subsequently 20 μl of 100 nM E2 was added (final concentration: 10 nM), and the mixture was reacted for 24 hours. The reaction solution was removed, and then 100 μl of SDS-sample buffer was added and the cells were lysed. The cells were subjected to boiling treatment at 95° C. for 5 minutes, and subjected to polyacrylic amide electrophoresis. Phosphorylations of Akt and MAPK were detected with anti-phosphorylation Akt (Ser473) (587F11) and anti-phosphorylation p44/42 MAP Kinase (Thr202/Tyr204) antibodies, and phosphorylation of ERα was detected with anti-phosphorylation ERα (Ser104/106), anti-phosphorylation ERα (Ser118), anti-phosphorylation ERα (Ser167), anti-phosphorylation ERα (Ser305) and anti-phosphorylation ERα (Tyr537) antibodies.

CC/C(=C(\c1ccccc1)c1ccc(OCCN(C)C)cc1)c1ccccc1 [tamoxifen, reference compound]
expression of ERAP1, mRNA level and protein level (ERAP1 expression): suppressed depending on the concentration of TAM
ERE reporter activity, siERAP1 versus si-control (ERE reporter activity): the reporter activity was suppressed more
cell proliferation, siERAP1 versus si-control (MCF-7 cells [1]): the cell proliferation was suppressed more
cell cycle (MCF-7 cells [2]): increase of cells having stopped in the G1 phase
phosphorylations of Akt and MAPK [3]: accelerated phosphorylations of Akt and MAPK
